How the values were obtained:
Assay type in all cases: cell-based, mouse
[1] = system: α7 integrin (LacZ reporter in α7βgal+/− myoblasts); assay: Myoblast α7+/LacZ integrin FDG assay (Burkin assay in myoblasts, 96-well); settings: 96-well; for Burkin Assay in Myoblasts, signal relative to DMSO: α7+/LacZ myoblasts; for Burkin Assay in Myoblasts, value relative to DMSO: SU9516 analogs, N=3-6
[2] = system: β-galactosidase in CMV-LacZ C2C12 myoblasts; assay: CMV-LacZ secondary screen in C2C12 myoblasts (β-Gal stabilizing assay); settings: for CMV-LACZ in Myoblasts (β-galactosidase activity relative to DMSO): CMV-LacZ C2C12 myoblasts; for CMV-LACZ in Myoblasts, value relative to DMSO: SU9516 analogs, C2C12 CMV-LacZ, N=2
Method in brief: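 CMV-LacZ C2C12 line (clonal, FDG-screened); myoblasts/myotubes dosed 0.5–40 μM (0.5, 1, 5, 10, 20, 40 μM); n=2 per point; β-gal stabilization read-out.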

[3] = system: α7 integrin (LacZ reporter in α7+/LacZ myotubes); assay: Myotube α7 integrin FDG assay (Burkin assay in myotubes, 96-well); settings: for Burkin Assay in Myotubes, value relative to DMSO: SU9516 analogs, 96-well, N=3-6
[4] = system: β-galactosidase in CMV-LacZ C2C12 myotubes; assay: CMV-LacZ secondary screen in C2C12 myotubes (β-Gal stabilizing assay); settings: for CMV-LACZ in Myotubes, signal relative to DMSO: C2C12 CMV-LacZ myotubes, fold relative to DMSO; for CMV-LACZ in Myotubes, value relative to DMSO: SU9516 analogs, C2C12 CMV-LacZ, N=2
Method in brief: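 β-Gal level was the read-out, measured in a clonal C2C12 line expressing LacZ from a CMV promoter. Dose-response curves used six concentrations, 0.5 μM up to 40 μM, with duplicate points.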

NC(=O)c1sc2nc3c(cc2c1N)CCC3 [MLS000707378-01]
Burkin Assay in Myoblasts, signal relative to DMSO ([1]; 0.5 uM): 1.003 | Burkin Assay in Myoblasts, signal relative to DMSO ([1]; 1 uM): 1.046 | Burkin Assay in Myoblasts, signal relative to DMSO ([1]; 5 uM): 1.024 | Burkin Assay in Myoblasts, signal relative to DMSO ([1]; 10 uM): 1.076 | Burkin Assay in Myoblasts, signal relative to DMSO ([1]; 20 uM): 1.317 | Burkin Assay in Myoblasts, signal relative to DMSO ([1]; 40 uM): 1.493 | CMV-LACZ in Myoblasts (β-galactosidase activity relative to DMSO) ([2]; 0.5 uM): 1.0175 | CMV-LACZ in Myoblasts (β-galactosidase activity relative to DMSO) ([2]; 1 uM): 1.0883 | CMV-LACZ in Myoblasts (β-galactosidase activity relative to DMSO) ([2]; 5 uM): 0.8309 | CMV-LACZ in Myoblasts (β-galactosidase activity relative to DMSO) ([2]; 10 uM): 0.8072 | CMV-LACZ in Myoblasts (β-galactosidase activity relative to DMSO) ([2]; 20 uM): 0.8667 | CMV-LACZ in Myoblasts (β-galactosidase activity relative to DMSO) ([2]; 40 uM): 0.6548 | Burkin Assay in Myotubes, α7 integrin LacZ reporter signal relative to DMSO ([3]; 0.5 uM): 0.8716 | Burkin Assay in Myotubes, α7 integrin LacZ reporter signal relative to DMSO ([3]; 1 uM): 0.8512 | Burkin Assay in Myotubes, α7 integrin LacZ reporter signal relative to DMSO ([3]; 5 uM): 0.8899 | Burkin Assay in Myotubes, α7 integrin LacZ reporter signal relative to DMSO ([3]; 10 uM): 1.241 | Burkin Assay in Myotubes, α7 integrin LacZ reporter signal relative to DMSO ([3]; 20 uM): 1.046 | Burkin Assay in Myotubes, α7 integrin LacZ reporter signal relative to DMSO ([3]; 40 uM): 1.051 | CMV-LACZ in Myotubes, signal relative to DMSO ([4]; 0.5 uM): 1.0537 | CMV-LACZ in Myotubes, signal relative to DMSO ([4]; 1 uM): 1.3937 | CMV-LACZ in Myotubes, signal relative to DMSO ([4]; 5 uM): 0.9294 | CMV-LACZ in Myotubes, signal relative to DMSO ([4]; 10 uM): 1.0300 | CMV-LACZ in Myotubes, signal relative to DMSO ([4]; 20 uM): 0.9689 | CMV-LACZ in Myotubes, signal relative to DMSO ([4]; 40 uM): 0.9167

N#C/C(=C1/C(=O)Nc2ccc(Br)cc21)c1ccccn1 [MLS001013431-01]
Burkin Assay in Myoblasts, value relative to DMSO ([1]; 0.5 uM): 1.202 | Burkin Assay in Myoblasts, value relative to DMSO ([1]; 1 uM): 1 | Burkin Assay in Myoblasts, value relative to DMSO ([1]; 5 uM): 0.7077 | Burkin Assay in Myoblasts, value relative to DMSO ([1]; 10 uM): 0.5311 | Burkin Assay in Myoblasts, value relative to DMSO ([1]; 20 uM): 0.4522 | Burkin Assay in Myoblasts, value relative to DMSO ([1]; 40 uM): 0.3362 | CMV-LACZ in Myoblasts, value relative to DMSO ([2]; 0.5 uM): 0.9906 | CMV-LACZ in Myoblasts, value relative to DMSO ([2]; 1 uM): 1.0640 | CMV-LACZ in Myoblasts, value relative to DMSO ([2]; 5 uM): 0.8366 | CMV-LACZ in Myoblasts, value relative to DMSO ([2]; 10 uM): 0.6673 | CMV-LACZ in Myoblasts, value relative to DMSO ([2]; 20 uM): 0.5904 | CMV-LACZ in Myoblasts, value relative to DMSO ([2]; 40 uM): 0.6670 | Burkin Assay in Myotubes, value relative to DMSO ([3]; 0.5 uM): 1.238 | Burkin Assay in Myotubes, value relative to DMSO ([3]; 1 uM): 1.0097 | Burkin Assay in Myotubes, value relative to DMSO ([3]; 5 uM): 0.8507 | Burkin Assay in Myotubes, value relative to DMSO ([3]; 10 uM): 0.8506 | Burkin Assay in Myotubes, value relative to DMSO ([3]; 20 uM): 0.7376 | Burkin Assay in Myotubes, value relative to DMSO ([3]; 40 uM): 0.7069 | CMV-LACZ in Myotubes, value relative to DMSO ([4]; 0.5 uM): 0.8638 | CMV-LACZ in Myotubes, value relative to DMSO ([4]; 1 uM): 1.1257 | CMV-LACZ in Myotubes, value relative to DMSO ([4]; 5 uM): 0.9388 | CMV-LACZ in Myotubes, value relative to DMSO ([4]; 10 uM): 0.9162 | CMV-LACZ in Myotubes, value relative to DMSO ([4]; 20 uM): 1.0682 | CMV-LACZ in Myotubes, value relative to DMSO ([4]; 40 uM): 1.2059

From patent publication US9980943B2, “Methods of treating muscular dystrophy” (BOARD OF REGENTS OF THE NEVADA SYSTEM OF HIGHER EDUCATION, …, priority 2013, dated 2018)
